Key:
[1] = test system: DRG explants; test: Mouse embryonic 3D DRG explants: axonal degeneration and myelination (MBP/TUBB3); format: cell-based; conditions: 72 h
Method: Embryonic DRG 3D explants were prepared from E13.5 mouse embryos and seeded at one explant/1.9 cm^2 on acid-treated, Matrigel-coated glass coverslips ([64], [65]). Explants were cultured at 37°C under 5% CO2 and high saturated in humidity. From DIV 0 to DIV 3, cultures were maintained in C-medium supplemented with 10% FBS, 1× GlutaMAX, D-glucose (4 g/liter), 2.5S nerve growth factor (NGF; 50 ng/ml), and 1% penicillin/streptomycin. From DIV 3 to DIV 7, neurobasal medium supplemented with 1× B27, 1× GlutaMAX, D-glucose (4 g/liter), 2.5S NGF (50 ng/ml), and 1% penicillin/streptomycin was used to promote axon development. From DIV 7 onward, differentiation medium [C-medium supplemented with 5 μM forskolin, ascorbic acid (50 μg/ml), and heparin (25 μg/ml)] was used to support glial cell maturation and myelination, with medium changes occurring every 2 days.
DRGs were fixed with 10% formalin for 20 min at R.T., washed with PBS, and permeabilized for 10 min with PBS–0.1% Triton X-100. Blocking was performed using a solution of 3% bovine serum albumin (BSA), 0.1% glycine, and 5% goat preimmune serum in PBS for 2 hours at R.T. DRGs were then washed in PBS and incubated overnight at 4°C with of anti-TUBB3 (1 μg/ml) and anti-MBP (1 μg/ml). After PBS washes, secondary antibodies (goat anti-mouse Alexa Fluor 488, 1:1000, and goat anti-rabbit Alexa Fluor 647, 1:1000) were applied for 1 hour at R.T. Explants were mounted with ProLong Gold antifade reagent with 4′,6-diamidino-2-phenylindole (DAPI).
Images of random fields of DRG explants, fixed in 4% formaldehyde and immunostained for TUBB3 and MBP, were captured with consistent acquisition times across samples, using a Zeiss AxioImager M2 microscope, equipped with a Hamamatsu Orca R2 camera. Image analysis was performed using Fiji software. The images were thresholded using the default global autothreshold method. For each field, MBP^+ segments were counted and normalized to the TUBB3^+ area.

[2] = test system: rat embryonic DRG neurons; test: Primary rat sensory neuron/Schwann cell culture exposed to Cis (myelination); format: cell-based; conditions: Cis 10 μg/ml; Carba1 tested at 1, 5, 10 μM
Method: These experiments, conducted by Neuro-Sys company (www.neuro-sys.com/) involved primary SNs and SCs cultured as previously described ([67]). On DIV 19, cultures were pretreated with Carba1 (1 to 10 μM) for 1 hour before exposure to Cis (10 μg/ml) for 24 hours in presence of Carba1. On DIV 20, the medium containing Cis was replaced with fresh medium and Carba1 for another 24 hours, ending the culture on DIV 21. Cells were fixed with ethanol/acetic acid (95%/5%) for 5 min, permeabilized, and blocked with PBS containing 0.1% saponin and 10% FBS. Cells were incubated with monoclonal anti-MBP (1:1000) and polyclonal anti-neurofilament (1:500) antibodies for 2 hours, followed by CF 488 A goat anti-mouse (1:400, Sigma-Aldrich) and Alexa Fluor 568 goat anti-rabbit (1:400, Molecular Probe) for 1 hour at R.T. Hoechst was used to stain nuclei.
Thirty images per well were acquired at ×20 magnification using ImageXpress (Molecular Devices) with identical acquisition settings, and analysis was automated with MetaXpress software. Key parameters measured included total neurite length (NF; in micrometers), total neurons (NF^+ cells), and myelination (MBP-NF overlap, in square micrometers).

[3] = test system: HeLa cells; test: NAD(P)H autofluorescence imaging in live HeLa cells; format: cell-based, human; conditions: 12 μM, 24 hours
Method: HeLa cells were seeded in four-chamber Labtek plates at 10,000 cells per well. After 48 hours, cells were preincubated with or without 12 μM Carba1 for 2 hours before addition of FK866 (5 and 10 nM). Drugs were added to phenol red–free DMEM medium, supplemented with 10% FBS 1% penicillin/streptomycin. After 24 hours of drug incubation, cells were imaged using a confocal microscope (LSM 710, Zeiss) with a two-photon excitation at 700 nm (Chameleon Vision Laser, Coherent) and a 40×/1.2 water-immersion objective. Detection was performed in single-photon mode using an avalanche photodiode detector (ConfoCor 3). NAD(P)H signal intensity was quantified as the mean signal per cell using ImageJ and normalized to the cell area.

[4] = test system: HeLa cells; design: method as in PMID 32781579; conditions: dividing cells, 72-hour treatment; read-out: GI50 (50% of growth inhibition); cited from earlier work
[5] = biological target: NAMPT (Homo sapiens, UniProt P43490); test: NAMPT activity assay (coupled recombinant enzyme kit); format: biochemical; design: purchased Abcam ab221819; conditions: OD450 at 60 min, normalized by subtraction of DMSO value
From the text: We next tested whether Carba1 could activate NAMPT in vitro. To that aim, we used a commercial recombinant human enzyme assay containing four enzymes: NAMPT, NAM nucleotide adenylyltransferase 1 (NMNAT1), alcohol dehydrogenase (ADH), and diaphorase (see Materials and Methods). In the presence of NAM and 5-phosphoribosyl-1-pyrophosphate (PRPP), NAMPT converts NAM to NMN, which is then converted into NAD^+ by NMNAT1, while ADH converts NAD^+ to NADH. Then, into a coupled-reaction, diaphorase converts NADH into NAD^+ and tetrazolium salt WST-1 {4-[3-(4-iodophenyl)-2-(4-nitro-phenyl)-2H-5-tetrazolio]-1,3-benzene sulfonate} to formazan, which can be detected at optical density at 450 nm (OD450). In practice, we proceeded in two steps. First, Carba1 and the different tested compounds were incubated for 15 min with NAMPT, NMNAT1, NAM, and PRPP to allow NAD^+ production. The reaction was then stopped with FK866 before adding ADH and diaphorase to convert the NAD^+ produced to NADH, and absorbance was monitored at regular intervals.
NAMPT activity was measured using the commercial kit, NAMPT Activity Assay, according to the manufacturer’s instructions. […] A mixture of water-soluble tetrazolium salts (WST-1), ADH, diaphorase, and ethanol was added and the absorbance (OD450) measured for 90 min using the microplate reader ClarioSTAR (BMG Labtech).

Sequence of NAMPT (P43490 whole entry): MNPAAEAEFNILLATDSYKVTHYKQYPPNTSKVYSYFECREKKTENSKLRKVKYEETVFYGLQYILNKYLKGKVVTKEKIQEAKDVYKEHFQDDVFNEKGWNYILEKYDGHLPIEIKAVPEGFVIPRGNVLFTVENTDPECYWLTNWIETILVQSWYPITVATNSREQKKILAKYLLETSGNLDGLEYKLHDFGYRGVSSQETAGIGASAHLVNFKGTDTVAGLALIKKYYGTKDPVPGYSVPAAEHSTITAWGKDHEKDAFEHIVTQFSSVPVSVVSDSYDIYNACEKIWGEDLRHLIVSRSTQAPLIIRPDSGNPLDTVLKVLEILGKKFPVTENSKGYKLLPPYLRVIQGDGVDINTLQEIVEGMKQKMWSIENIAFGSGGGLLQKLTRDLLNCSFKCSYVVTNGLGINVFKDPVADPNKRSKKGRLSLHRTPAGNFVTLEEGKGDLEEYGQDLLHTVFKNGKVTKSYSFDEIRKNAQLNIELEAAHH

Cc1cc(-n2cccc2)c(C)c2c1[nH]c1ccc(Cl)cc12 [Compound 1]
fragmented axons in DRG explants under PTX ([1]; 12 μM Carba1 with 500 nM PTX): reduced number of fragmented axons
myelin staining, Carba1 combined with PTX vs PTX alone ([1]; 12 μM Carba1 with 500 nM PTX): substantially improved
MBP staining (axonal myelination), agent alone ([1]; Carba1 12 μM or PTX 500 nM): had no effect
concentration of maximal protective effect against Cis-induced demyelination [2]: 5 µM
increase in NAD(P)H production [3]: about 30%
GI50 [4]: > 25 µM
activation of NAMPT in vitro [5]: enhanced NAMPT activity in a dose-dependent manner

— PMC12571071, “Preventing neuropathy and improving anticancer chemotherapy with a carbazole-based compound” (Science Advances, 2025)
